Assay results: patent US7235583B1, “Fatty acid-anticancer conjugates and uses thereof” (Luitpold Pharmaceuticals, Inc.,, priority 1999, dated 2007)

Experiments:
Assay type in all cases: in vivo
[1] = system: human NCI-H522 lung tumor; experiment: Response of human NCI-H522 lung tumor in nude mice; settings: day 15 to 19 after implantation
Experimental: The tumors were implanted sub-cutaneously. Tumor mass was determined by calculation from tumor length and width. The drugs were dissolved in 12.5% cremophor EL/12.5% ethanol/75% saline and delivered i.v. into the tail vein, once a day for 5 days, from day 15 to 19 after tumor implantation. […] (FIG. 3)

[2] = system: mouse lung tumor line M (Madison) 109; experiment: Taxoprexin and paclitaxel against M 109 lung carcinoma in mice, treatment from day 5 (tumors 300 mg); settings: tumors 300 mg at start
Experimental: Syngeneic mice were injected with mouse lung tumor line M (Madison) 109 sub-cutaneously in the flank. […] Both drugs were dissolved in 10% cremophor EL/10% ethanol/80% saline. Tumor volume was estimated from tumor width and length. […] (FIG. 2)

human HCT colon tumor = experiment: Cure of human HCT colon tumor in mice; settings: HCT is a paclitaxel resistant tumor
[3] = system: mouse lung tumor line M (Madison) 109; experiment: Taxoprexin and paclitaxel against M 109 lung carcinoma in mice, treatment from day 4 (tumor about 30 mg); settings: days 4 through 8, tumor about 30 mg at start
Experimental: Syngeneic mice were injected with mouse lung tumor line M (Madison) 109 sub-cutaneously in the flank. […] Both drugs were dissolved in 10% cremophor EL/10% ethanol/80% saline. Tumor volume was estimated from tumor width and length. […] (FIG. 1)

[4] = Plasma and tumor concentrations of paclitaxel in mice bearing M 109 or M 5076 tumors; settings: for time for which levels of paclitaxel in tumors remain stable: tumors treated with the named drug
Experimental: The drug was dissolved in 10% cremophor EL/10% ethanol/80% saline. Mice were sacrificed and tumors immediately excised as a function of time after injecting the drug. Tumor tissue was homogenized and paclitaxel extracted. […] Blood was collected at the same time intervals and the amount of paclitaxel determined. […] Each data point is the mean of three measurements (n=3); the error bar is one standard deviation.

[5] = Dose comparisons (MTD) of taxoprexin and paclitaxel in various species; settings: mice, rats and dogs
Description: Calculation of MTD in animals may be based on a number of physiological parameters, such as death, particular toxicities, drug induced weight loss. Using death as an endpoint, the MTD may be the dose given test animals in which each member of the test group survived. Using toxicity as an endpoint, the MTD may be the dose at which moderate but not severe toxicity is observed. Using weight loss as an endpoint, the MTD may be the dose above which a certain percent change in body weight is induced.

[6] = paclitaxel 20 mg/kg/day x 5 days i.v. bolus from day 5

Row | Compound | mice with all measurable tumors eliminated ([1]; 20 mg/kg/day x 5 days i.v.) | LCK [2, 6] | retarded tumor growth (duration) [2, 6] | mice cured of tumor (human HCT colon tumor) | retarded tumor growth (duration) ([3]; paclitaxel 20 mg/kg/day x 5 days i.v. bolus) | t½ in tumor ([4]; paclitaxel in the same tumor system) | time for which levels of paclitaxel in tumors remain stable [4] | mice with all measurable tumors eliminated ([1]; 50 mg/kg/day x 5 days i.v.) | toxicity compared with paclitaxel [5] | mice with all measurable tumors completely eliminated ([2]; taxoprexin 80 mg/kg/day x 5 days i.v. bolus from day 5) | mice with all measurable tumors completely eliminated (C/T) ([2]; taxoprexin 120 mg/kg/day x 5 days i.v. bolus from day 5) | mice with all measurable tumors completely eliminated ([3]; taxoprexin 120 mg/kg/day x 5 days i.v. bolus) | plasma concentration of paclitaxel derived from taxoprexin ([4]; after 24 hours, i.v. bolus 50 mg/kg taxoprexin) | tumor concentration of paclitaxel derived from taxoprexin ([4]; after 24 hours, i.v. bolus 50 mg/kg taxoprexin, M109 or M5076 tumors)
1 | CC(=O)O[C@H]1C(=O)[C@@]2(C)[C@H]([C@H](OC(=O)c3ccccc3)[C@]3(O)C[C@H](OC(=O)[C@H](O)[C@@H](NC(=O)c4ccccc4)c4ccccc4)C(C)=C1C3(C)C)[C@]1(OC(C)=O)CO[C@@H]1C[C@@H]2O [paclitaxel, reference compound] | 10/10 | 1.0 | about four days | 0/8 | about four days | < 8 h | less than 8 hours | – | – | – | – | – | – | –
2 | CC/C=C\C/C=C\C/C=C\C/C=C\C/C=C\C/C=C\CCC(=O)O[C@@H](C(=O)O[C@H]1C[C@@]2(O)[C@@H](OC(=O)c3ccccc3)[C@@H]3[C@]4(OC(C)=O)CO[C@@H]4C[C@H](O)[C@@]3(C)C(=O)[C@H](OC(C)=O)C(=C1C)C2(C)C)[C@@H](NC(=O)c1ccccc1)c1ccccc1 [taxoprexin] | – | – | – | 3/8 | – | – | 24 h | 10/10 | less toxic | four out of seven | 7/8 | eight out of eight | 70 nM | about 3 μM
